Experimental data: patent publication US12564568B2, “PKC pathway in Parkinson's Disease” (CEDARS-SINAI MEDICAL CENTER, priority 2018, dated 2026)
“Also recorded” adds a separate entry of the source.

Tests used:
[1] = system: α-synuclein; assay: α-synuclein protein level in day 30 iPSC-derived mDA (DaN) cultures after drug treatment (western blot, immunostaining); assay type: cell-based, human
Procedure: (§1) iPSC maintenance, mDA neuron differentiation and drug treatments: iPSCs were maintained in E8 media on Matrigel and passaged every 5 days at split ratios from 1:6 to 1:12 as needed using Versene. Only iPSCs between passage 17 and passage 35 were used in this study. For differentiation, iPSCs were grown to ˜80% confluency. Cells were singularized with Accutase (Millipore/Sigma #SCR005) (5 minutes at 37° C.) and plated onto Matrigel-coated 6-well plates (BD Biosciences) at 200K cells per cm^2 (for a fully confluent monolayer) in E8 media with 5 μM Y27632 (StemGent). 24 hours after plating, media was changed to Stage 1 (50% DMEM/F12, 50% Neurobasal, N2, B27-Vitamin A, LDN-193189 (LDN), SB431542 (SB)). Stage 1 media was changed each day (3 mL per well) for 3 days. Media was next switched to Stage 2 (50% DMEM/F12, 50% Neurobasal, N2, B27-Vitamin A, LDN, SB, Purmorphamine (PMN), CHIR99021 (CHIR), Sonic hedgehog (SHH), Fibroblast Growth Factor 8 (FGF8)). Stage 2 media was changed each day (3 mL per well) for 4 days. Media was then switched to Stage 3 (50% DMEM/F12, 50% Neurobasal, N2, B27-Vitamin A, LDN, CHIR, all-trans-Retinoic acid (ATRA)). Stage 3 media was changed each day (3 mL per well) for 4 days. Finally, media was switched to Stage 4 (50% DMEM/F12, 50% Neurobasal, N2, B27+Vitamin A, Brain-Derived Neurotrophic Factor (BDNF), Glial Cell Line-Derived Neurotrophic Factor (GDNF), dibutyryl cyclic-AMP sodium salt (dbCAMP), L-Ascorbic Acid (AA), γ-Secretase inhibitor (DAPT), CHIR, Transforming Growth Factor beta-3 (TGF β3)). Stage 4 media was changed each day (3 mL per well) for 3 days. On day 15, cells were dissociated to single cells using Accutase (20 mins at 37° C.) and gently lifted. Dissociated cells were resuspended in Maturation Medium (50% DMEM/F12, 50% Neurobasal, N2, B27+Vitamin A, BDNF, GDNF, dbCAMP, AA, DAPT, TGF3) plus 5 μM Y27632 and reseeded onto Matrigel-coated 6-well plates at 200 k/cm^2 in 1 mL total volume or onto Matrigel-coated L-glass coverslips in a 24-well plate at 200 k/50 μL drop. Cells were allowed to attach for 45 mins at 37° C. and Maturation Medium was then added to final volumes of 3 mL per well for 6-well plates or 1.5 mL per well for 24-well plates with coverslips. A full medium change was performed 48-hours post-seeding and medium was changed every 3 days until day 30. For drug treatments, cells at day-27 were fed with Maturation Medium containing the indicated drug and cells were analyzed at day 30.
Immunocytochemistry and imaging: mDA neuron cultures were plated on L-glass coverslips and grown as above. Day 30 neurons were fixed in 4% PFA at room temperature for 10-15 mins. Fixed coverslips were washed in PBS and permeabilized for 10 minutes at room temperature in 1% Triton X-100 in PBS, followed by staining in primary antibody solution (5% normal donkey serum, 0.125% Triton-X, PBS) overnight at 4° C. with the following antibodies: TH (1:5000, Immunostar #22941) and α-synuclein (1:500, Abcam #ab138501). Samples were washed 3 times in PBS and stained with species-specific Alexa Fluor 488 or 594-conjugated secondary antibodies (1:500, Invitrogen) for 2 hours at room temperature, followed by DAPI counterstain. Confocal Z-stack images were acquired using a A1 microscope (Nikon) with 40× and 20× objectives and rendered using maximum intensity projection through IMARIS software (Bitplane).
Western blot: Cells were gently scraped off the plates, washed with PBS, centrifuged at 15000 RPM for 1 min, and dry pellets were frozen at −80° C. Samples were then thawed and lysed using 1×NETN buffer (20 mM Tris-HCl (pH 8.0), 100 mM NaCl, 0.5 mM EDTA and 0.5% NP-40) supplemented with phosphatase/protease inhibitor cocktail (MS-SAFE, Sigma-Aldrich). Lysates were sonicated in an automated cold bath sonicator for 20 mins using alternating 10 sec pulses followed by 10 sec rests. Samples were centrifuged for 20 min at 4° C. at 15000 RPM. Total soluble protein concentrations were measured using a Bradford assay (BIO-RAD). […]

[2] = system: tyrosine hydroxylase (TH); assay type: cell-based, human
Procedure: as §1
Analytical flow cytometry: Day-30 cultures in 6-well plates were washed once in phosphate buffered saline (PBS) then 1 mL Accutase was added to each well and incubated for 25 mins at 37° C. or until the cells fully lifted. Cells were washed with an additional 2 mL Maturation Medium and very gently triturated until large clumps were no longer visible at which point cells were pelleted by centrifugation (1500 RPM for 3 mins). Cells were gently resuspended in 4% paraformaldehyde (PFA) in PBS and allowed to fix for 10-15 mins at room temperature. Fixed single cells were permeabilized using 1% Trition X-100 (Sigma-Aldrich) and stained using primary antibodies against TH (1:500 Immunostar, 22941), α-synuclein (1:1000 Abcam, ab138501), and MAP2ab (1:1000 Sigma-Aldrich, M1406), or isotype controls at same dilution (Cell Signaling IgG Isotype Control rabbit #3900S and mouse #5415S). Secondary antibodies (Alexa Fluor 488 and 594 donkey anti-mouse and donkey anti-rabbit, Invitrogen) were used at 1:500. Stained samples were quantified on an LSR Fortessa cytometer using BD FACSDiva software.
Immunocytochemistry and imaging: mDA neuron cultures were plated on L-glass coverslips and grown as above. Day 30 neurons were fixed in 4% PFA at room temperature for 10-15 mins. […]

## C/C=C(/C)C(=O)O[C@H]1C(C)=C[C@]23C(=O)[C@@H](C=C(CO)[C@@H](O)[C@]12O)[C@H]1[C@@H](C[C@H]3C)C1(C)C [PEP005, ingenol-3-angelate]
[1]; EOSPD/PD cultures (190iPD), treated 3 days from day 27, PEP005 1 μM, SMER-28 5 μM, Trehalose
  α-synuclein levels (western blot): substantially reduced
[1]; PEP005-treated mDA cultures
  α-synuclein by immunostaining: decreased
[1]; both control and PD cultures / all treated lines, PEP005 1 μM, 3 days
  α-synuclein levels (western blot): reduced; also recorded: decrease; also recorded: rapid reduction
[1]; control line cultures (02iCTR), treated 3 days from day 27, PEP005 1 μM, SMER-28 5 μM, Trehalose
  amount of α-synuclein protein (western blot): significantly reduced
[1]; dose response study, low doses
  α-synuclein at low PEP005 doses: robust reduction
[1]; time-course, control and PD cultures
  time until α-synuclein is degraded in response to drug treatment: ≤ 24 h
[2]; PEP005-treated mDA cultures
  TH by immunostaining: enhanced
[2]; both control and PD cultures, 3 days treatment from day 27, listed as PEP
  amount of TH enzyme present: increase
[2]; d30 mDA cultures, PEP005 72 hrs
  number of TH neurons (flow cytometry): did not result in an increased number
[2]; d30 mDA cultures, PEP005 72 hrs, relative to untreated
  level of TH expression in neurons (flow cytometry): significantly higher levels
